Source: US20140143910A1, “COMPOSITION THAT AUGMENTS PLANT DISEASE RESISTANCE AND/OR BRANCHING” (Riken, priority 2011, published 2014)

Tested on: PR1 gene
Experiment: PR1 gene expression by real-time PCR in rosette leaves of wild-type strain and bil3 mutant, treated or untreated with brassinolide
Format: in vivo, Arabidopsis thaliana
Conditions: BL-treated bil3 mutant (BIL3 gene-overexpressing), compared with the wild-type strain; FIG. 7
Method: Individuals of the wild-type strain and the bil3 mutant grown in the same way as in Example 1 were treated or untreated with brassinolide (BL), one type of BR, to prepare samples. Total RNA was extracted from the rosette leaf of each strain using RNeasy Plant Mini Kit (Qiagen N.V.). Next, cDNA was synthesized from the extracted total RNA using PrimeScript First-Strand cDNA Synthesis Kit (Takara Bio Inc.). Specific procedures for the total RNA extraction and the cDNA synthesis followed the protocol included in each kit. Subsequently, the expression of the PR1 gene was analyzed by real-time PCR with the synthesized cDNA as a template using primers PR1-RT-F represented by SEQ ID NO: 46 and PR1-RT-R represented by SEQ ID NO: 47, SYBR Premix EX Taq kit (Takara Bio Inc.) and a real-time PCR apparatus Thermal Cycler Dice (Takara Bio Inc.).

With `CC(C)[C@H](C)[C@@H](O)[C@H](O)[C@@H](C)[C@H]1CC[C@H]2[C@@H]3COC(=O)[C@H]4C[C@H](O)[C@H](O)C[C@]4(C)[C@H]3CC[C@]12C` [BL, brassinolide] the “expression level of the PR1 gene, relative value with the BL-untreated wild-type strain as 1” value was “approximately 40 times”.
